Measured values from patent US10286056B2, “Adjuvant nanoemulsions with crystallisation inhibitors” (GLAXOSMITHKLINE BIOLOGICALS S.A., priority 2011, dated 2019).

Test: log P (partition coefficient in 1-octanol and water)
Type: physicochemical
Details: 1-octanol/water, pH 7.4
Excerpt: Emulsions of the invention are useful for formulating lipophilic pharmacological agents (LPAs) for in vivo use. Such LPAs include, but are not limited to, vitamins (e.g. vitamins A, D, E and K and their salts/esters, such as α-tocopherol succinate), carotenoids (e.g. β-carotene), fatty acids (e.g. arachidonic acid, ecosapentaenoic acid docosahexaenoic acid), pyrimidines (e.g. 5-hydroxy-4,6-dimethyl-2-(6-phenylhexyl)aminopyrimidine), ansamitocins, angiotensin II receptor antagonists (e.g. candesartan cilexetil), and immunopotentiators (e.g. muramyl dipeptides).
For example, to deliver a 25 μg dose in a typical oil-in-water emulsion would require the agonist to have a squalene solubility of 10 mg/ml, which is about 2.5× higher than can be achieved.

Cc1ccc2c(c1)nc(N)c1ncc(CCc3ccc(OCCC(C)C)cc3C)cc12 [compound ‘A’]
logP: 7.5
